Among the data in patent US11584754B2, “Derivatives of thailanstatin A, methods of treatment and methods of synthesis thereof” (WILLIAM MARSH RICE UNIVERSITY, priority 2016, dated 2023) are IC50 values, retold here.

Read-outs that look alike come from different tables or passages of the source. Non-standard residues stand in square brackets, D forms with d. Residues, ends and D or L forms follow the SMILES beside them. *: point of attachment. Dolaproine = CO[C@@H]([C@@H]1CCCN1)[C@@H](C)C(=O)O; Dil = CC[C@H](C)[C@H](NC)[C@@H](CC(=O)O)OC; X1 = C[C@@H](N*)[C@@H](O)c1ccccc1; NMeV = CN[C@H](C(=O)O)C(C)C

Holding throughout (type): cell-based, human
In assay [1] the test system is MES SA. The experiment in a line: Cytotoxicity assay (72 hour killing assay, CellTiter-Glo), MES SA. Conditions: read-out: Cancer cell lines IC50 (nM) MES SA. The procedure: (§1) Cells were cultured in a T75 flask to ˜50-80% confluency and harvested with trypsin into a single cell suspension. Five hundred (500) cells per well were seeded in tissue culture plates in 50 μL/well culture media and incubated at 37° C. for 18-24 h. Compounds were diluted as 400× final desired concentrations in DMSO. Serial dilutions in DMSO were then diluted in culture media for a final DMSO concentration of 0.25% and 50 μL/well of the final dilution was added to the cells (Vf=100 μL). Upon plating and treatment, cells were returned to the incubator for an additional 72 hours. CellTiter-Glo reagent was prepared per manufacturer's instructions and added at 100 μL/well to the cultures. CellTiter-Glo allows for relative enumeration of metabolically active cells by quantifying intracellular ATP concentrations. After 5 minutes of incubation with CellTiter-Glo at ambient room temperature, 125 μL/well of the Cell Titer glo/cell lysate solution was transferred into black assay plates, which were then read in a luminometer within 30 minutes.
(§2) MES SA and MES SA/Dx cells are uterine sarcoma. MES SA Dx cell line was generated from MES SA to achieve upregulation of MDR1.
In general terms: In ATP-based viability assays light output follows the ATP content of the culture.

Assay [2] has as its system MES SA DX. Description: Cytotoxicity assay (72 hour killing assay, CellTiter-Glo), MES SA DX. The conditions noted are these: read-out: Cancer cell lines IC50 (nM) MES SA DX. The procedure:
as §1, §2

Assay [3] deals with HEK 293T. Description: Cytotoxicity assay (72 hour killing assay, CellTiter-Glo), HEK 293T. The conditions noted are these: read-out: Cancer cell lines IC50 (nM) HEK 293T. On the procedure:
as §1
293T cells are human embryonic kidney cell line.

One may read the IC50 as the midpoint of a concentration-inhibition curve. As for `CC[C@H](C)[C@@H]([C@@H](CC(=O)N1CCC[C@H]1[C@H](OC)[C@@H](C)C(=O)N[C@H](C)[C@@H](O)c1ccccc1)OC)N(C)C(=O)[C@@H](NC(=O)[C@@H](NC)C(C)C)C(C)C` [MMAE, reference compound] (H-[NMeV]V[Dil][Dolaproine]-X1), the IC50 amounted to 0.096 nM in assay [1] (50% inhibitory concentration against cell growth, human uterine sarcoma cell line, 72 hours); 88.2 nM in assay [2] (50% inhibitory concentration against cell growth, MES SA cell line with marked multidrug resistance, 72 hours); 0.068 nM in assay [3] (50% inhibitory concentration against cell growth, human embryonic kidney cancer cell line, 72 hours).
As to `COC(=O)C[C@@H]1C[C@@]2(CO2)[C@H](O)[C@@H](/C=C/C(C)=C\C[C@@H]2O[C@H](C)[C@H](NC(=O)/C=C\[C@H](C)OC(C)=O)C=C2C)O1` [Compound 46], the IC50 in assay [1] (Homo sapiens, MES-SA, 72 h) is greater than 1000 nM; in assay [2] (Homo sapiens, MES-SA, 72 h) it was greater than 1000 nM; in assay [3] (Homo sapiens, HEK-293T, 72 h) it was greater than 1000 nM.
